{"source": "patent US20240226034A1", "about": "“Use of Terpenoids and Salicylates as Anesthetics and Analgesics” (THE REGENTS OF THE UNIVERSITY OF CALIFORNIA, priority 2021, published 2024)", "key": {"Sprague Dawley rats": {"tested_on": "Sprague Dawley rats", "assay": "Another experiment: IV doses of 10% (v/v) solutions in […]", "type": "in vivo, rat", "description": "In another experiment, a 10% (v/v) solution of methyl salicylate in […]®, and a 10% (v/v) solution of L-carvone in […]® were each tested in Sprague Dawley rats that each weighed approximately 300 g."}, "[1]": {"assay": "Plasma concentration during IV infusion anesthesia (LC-MS)", "type": "in vivo, rat", "procedure": "Lateral tail veins were catheterized in eight, 70-day-old, male, Sprague Dawley rats weighing 309±6 g. A 10% solution of L-carvone or methyl salicylate in 20% […]® was each administered IV to 8 rats (4 animals per drug treatment) by using a syringe pump at a rate of 12 mL/h. When rats lost their righting reflex and were unresponsive to a tail clamp, a midline laparotomy was performed, the abdominal aorta catheterized, and the rat exsanguinated. Blood was collected in a heparin tube and centrifuged; plasma was separated and stored in cryogenic tubes at −80° C. until analysis.\nSerum calibrations were prepared by dilution of working standard solutions of methyl salicylate and L-carvone with drug-free rat serum (Innovative Research, Novi, MI, USA) to concentrations ranging from 0.05 to 500 μg/mL. Calibration curves and negative control samples were prepared fresh for each quantitative assay. In addition, quality control samples (drug-free rat serum fortified with analyte at 3-4 concentrations within the standard curve) were included as an additional check of accuracy.\nPrior to analysis, 100 μL of each serum sample was diluted with 100 μL of acetonitrile (ACN):1 M acetic acid (9:1, v:v) and 50 μL of methanol to precipitate proteins. The samples were vortexed for 2 min to mix, refrigerated for 20 min, vortexed for an additional 1 min, centrifuged (4,300 rpm/3, 102 g) for 10 min at 4 °C, and 10 μL injected into the liquid chromatography tandem mass spectrometry system.\nQuantitative analysis was performed on an LTQ XL Orbitrap mass spectrometer (Thermo Scientific, San Jose, CA, USA) coupled with a Waters Acquity UPLC (Milford, MA, USA). […] Detection and quantification were conducted using full-scan accurate mass from 145 to 160 (m/z). […]\nThe precision and accuracy of the assay was determined by assaying quality control samples in replicates (n=6). […] The technique was optimized to provide limits of quantitation of 0.5 μg/mL and 0.05 μg/mL and limits of detection of approximately 0.1 μg/mL and 0.025 μg/mL for methyl salicylate and L-carvone, respectively."}, "[2]": {"conditions": "cited from earlier work"}, "[3]": {"tested_on": "sciatic nerve axon of frogs", "conditions": "frog sciatic nerve axon; read-out: IC50, decrease of compound action potential amplitude; cited from earlier work"}, "[4]": {"molecular_target": "T1, human benzodiazepine-sensitive α1β2γ2s GABAA receptors (Homo sapiens, UniProt P14867+P18507+P47870)", "T1 construct": "host or cells: frog oocytes", "T1 sequence (P14867 28-456)": "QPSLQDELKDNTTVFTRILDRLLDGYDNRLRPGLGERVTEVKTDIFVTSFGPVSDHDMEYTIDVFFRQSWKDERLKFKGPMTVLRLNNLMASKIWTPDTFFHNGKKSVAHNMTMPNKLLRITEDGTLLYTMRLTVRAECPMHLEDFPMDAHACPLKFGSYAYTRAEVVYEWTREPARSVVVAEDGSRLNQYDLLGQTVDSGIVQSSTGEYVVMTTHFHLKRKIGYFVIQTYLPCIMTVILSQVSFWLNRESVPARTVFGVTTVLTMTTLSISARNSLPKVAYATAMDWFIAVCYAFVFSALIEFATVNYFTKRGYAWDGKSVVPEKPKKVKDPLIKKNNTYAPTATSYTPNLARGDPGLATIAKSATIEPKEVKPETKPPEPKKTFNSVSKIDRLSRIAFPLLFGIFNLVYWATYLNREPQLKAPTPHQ", "T1 sequence (P47870 26-474 isoform P47870-1 limits assumed)": "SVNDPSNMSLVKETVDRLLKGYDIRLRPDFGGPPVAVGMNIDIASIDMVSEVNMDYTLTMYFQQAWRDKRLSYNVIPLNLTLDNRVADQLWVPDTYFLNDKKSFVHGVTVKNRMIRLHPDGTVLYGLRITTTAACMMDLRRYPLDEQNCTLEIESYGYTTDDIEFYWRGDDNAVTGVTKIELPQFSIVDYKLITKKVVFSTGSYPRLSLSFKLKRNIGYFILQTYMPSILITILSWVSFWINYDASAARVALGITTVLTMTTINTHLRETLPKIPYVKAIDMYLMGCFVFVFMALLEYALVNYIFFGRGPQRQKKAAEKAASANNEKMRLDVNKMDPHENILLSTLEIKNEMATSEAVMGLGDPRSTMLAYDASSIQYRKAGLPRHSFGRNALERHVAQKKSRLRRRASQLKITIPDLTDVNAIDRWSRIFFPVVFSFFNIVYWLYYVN", "T1 sequence (P18507 40-467 isoform P18507-1 limits assumed)": "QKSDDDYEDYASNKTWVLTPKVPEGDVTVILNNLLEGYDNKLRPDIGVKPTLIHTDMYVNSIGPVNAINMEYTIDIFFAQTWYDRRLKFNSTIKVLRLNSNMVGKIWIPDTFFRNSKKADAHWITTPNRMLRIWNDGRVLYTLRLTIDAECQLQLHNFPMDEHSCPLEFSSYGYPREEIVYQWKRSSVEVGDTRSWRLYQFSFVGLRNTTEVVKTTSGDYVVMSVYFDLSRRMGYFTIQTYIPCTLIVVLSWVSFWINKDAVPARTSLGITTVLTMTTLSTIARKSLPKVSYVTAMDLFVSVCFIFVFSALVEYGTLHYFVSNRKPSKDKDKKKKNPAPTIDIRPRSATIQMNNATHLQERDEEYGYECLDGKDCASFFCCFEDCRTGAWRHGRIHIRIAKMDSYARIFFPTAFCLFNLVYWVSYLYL", "conditions": "concentrations up to 0.12 mM; cited from earlier work"}, "rat sciatic nerves": {"tested_on": "rat sciatic nerves", "conditions": "read-out: IC50, decrease of compound action potentials; cited from earlier work"}, "[5]": {"tested_on": "GABAA receptors, rat cerebral cortex cell cultures", "conditions": "0.75 mM; cited from earlier work"}, "[6]": {"conditions": "Sprague Dawley, rat, in vivo, iv"}}, "data": [{"compound": "COC(=O)c1ccccc1O", "note": "[methyl salicylate]", "values": [{"measurement": "duration of loss of righting reflex", "setting": "Sprague Dawley rats; 0.2 mL IV", "result": 30, "unit": "s"}, {"measurement": "time to ambulatory after return of righting", "setting": "Sprague Dawley rats; 0.2 mL IV", "result": 40, "unit": "s"}, {"measurement": "time to loss of righting reflex", "setting": "Sprague Dawley rats; 0.2 mL IV", "result": "≤ 25", "unit": "s"}, {"measurement": "time to loss of righting", "setting": "Sprague Dawley rats; 0.4 mL IV", "result": 15, "unit": "s"}, {"measurement": "time from apnea to confirmed cardiac arrest", "setting": "Sprague Dawley rats; [6]", "result": "less than 1 minutes"}, {"measurement": "time from loss of righting to apnea", "setting": "Sprague Dawley rats; [6]", "result": 5, "unit": "s"}, {"measurement": "gross necropsy performed 2 days later", "setting": "Sprague Dawley rats; rat, in vivo, iv", "result": "No evidence of hepatic, renal, cardiac, or pulmonary injury"}, {"measurement": "mean plasma concentration (±SEM) during IV infusion", "setting": "[1]; male, Sprague Dawley, rat, in vivo, iv", "result": "2700 ± 400", "unit": "µM"}, {"measurement": "solubility in water relative to cutoff values for modulation of the 3 ion channels", "setting": "[2]", "result": "more soluble in water than the cutoff values"}]}, {"compound": "L-carvone", "values": [{"measurement": "IC50", "setting": "[3]", "result": 1.4, "unit": "mM"}, {"measurement": "duration of general anesthesia effects", "setting": "Sprague Dawley rats; 0.2 mL IV", "result": 1, "unit": "min"}, {"measurement": "gross necropsy performed 2 days later", "setting": "Sprague Dawley rats; 0.2 mL IV", "result": "No evidence of hepatic, renal, cardiac, or pulmonary injury"}, {"measurement": "time after administration to awake and ambulatory", "setting": "Sprague Dawley rats; 0.2 mL IV", "result": "≤ 3", "unit": "min"}, {"measurement": "time to general anesthesia (loss of righting reflex and tail clamp response)", "setting": "Sprague Dawley rats; 0.2 mL IV, approx. 300 g rats", "result": "≤ 30", "unit": "s"}, {"measurement": "apnea after onset of anesthesia", "setting": "Sprague Dawley rats; 0.4 mL IV", "result": "almost immediately"}, {"measurement": "time from apnea to confirmed cardiac arrest", "setting": "Sprague Dawley rats; 0.4 mL IV", "result": 2, "unit": "min"}, {"measurement": "time to anesthesia", "setting": "Sprague Dawley rats; 0.4 mL IV", "result": "≤ 45", "unit": "s"}, {"measurement": "plasma concentration relative to that for methyl salicylate", "setting": "[1]; at the time general anesthesia was achieved", "result": 3, "unit": "times"}, {"measurement": "mean plasma concentration (±SEM) during IV infusion", "setting": "[1]; rats N=4, at loss of righting reflex and tail clamp response", "result": "7900 ± 3000", "unit": "µM"}, {"measurement": "response of α1β2γ2s GABAA receptors", "setting": "[4]", "result": "minimal response"}, {"measurement": "IC50", "setting": "rat sciatic nerves", "result": 8.7, "unit": "mM"}, {"measurement": "reduction of GABAA-induced benzodiazepine binding", "setting": "[5]", "result": 36, "unit": "%"}]}]}
